# Source: patent US7585523B2, “Composition and method to augment and sustain neurotransmitter production” (Targeted Medical Pharma, priority 2002, dated 2009)
# Legend:
# heart rate [1] = experiment: Continuous heart rate monitoring in 6 individuals, sustained effect; assay type: in vivo, human; conditions: baseline 0.0
# Description: In 6 individuals, heart rate experiments were performed to show the sustained effect of the combination of the five elements outlined in this invention. […] They sat quietly for […] to establish a baseline. They then on subsequent days ingested combination of the 5 elements described in this invention. The results are depicted in table 2 and FIG. 5. Where C is caffeine 150 mg, T is tyrosine 50 mg, CH is choline 200 mg, and GB is ginkgo biloba 120 mg.
# heart rate [2] = experiment: Continuous heart rate recording, one individual, components on successive days; assay type: in vivo, human; conditions: baseline as reference, time point not given (5, 10, 15, 30 minutes recorded), caffeine 150 mg, tyrosine 50 mg, histadine 100 mg, Ginkgo Biloba 120 mg, choline 120 mg
# Description: To test the components of example 14, a series of experiments were performed using a continuous heart rate recorder. In an individual on successive days, heart rate was recoded as RR intervals in msec. The individual sat quietly for 30 minutes as baseline. Then on day 1 the combination of caffeine, 150 mg, with tyrosine, 50 mg, histadine, 100 mg, Ginkgo Biloba, 120 mg, and choline 120 mg was given. […] A percent change was calculated with the baseline as reference. On Day 2 caffeine alone was ingested using the same protocol. […] On day 5, ginkgo biloba was ingested.
# [3] = test system: vasodilation of the skin (skin temperature); experiment: Skin temperature probe test of skin vasodilation; assay type: in vivo, human; conditions: single ingredient given alone
# Description: A person ingested the preparation designed to increase nitric oxide and acetylcholine in order to induce vasodilation (example 3). The preparation included choline, arginine, hawthorn berry, cocoa, dextrose, and cinnamon. A temperature probe designed to assess skin temperature measured vasodilation of the skin. The baseline skin temperature was 99 degrees Fahrenheit. Within fifteen minutes after ingestion of the capsules, the skin temperature increased to 101.3 degrees Fahrenheit and remained elevated for three hours. The next day arginine alone was given with no effect on skin temperature. The following day, choline alone was given with no effect on skin temperature. The preparation was given for two weeks when skin temperature was again measured. The skin temperature increased by two degrees and remained elevated for 60 minutes (FIG. 3).
# [4] = test system: appetite; heart rate and heart rate variability; experiment: Shell's earlier studies of attenuation of precursor formulations; assay type: in vivo; conditions: Shell's studies dating to 1987
Structure (SMILES),percent change in heart rate (heart rate [2]),effect on skin temperature [3],other results
Cn1c(=O)c2c(ncn2C)n(C)c1=O [Caffeine],3%,–,"heart rate, 5 min (heart rate [1]; 5 min after ingestion): 3.0; heart rate, 15 min (heart rate [1]; 15 min after ingestion): 1.3; heart rate, 30 min (heart rate [1]; 30 min after ingestion): 0.0"
C[N+](C)(C)CCO [Choline],−4%,no effect,–
N[C@@H](Cc1c[nH]cn1)C(=O)O [Histadine],0.2%,–,–
N[C@@H](Cc1ccc(O)cc1)C(=O)O [Tyrosine],1%,–,time until appetite suppression is lost [4]: approximately 7 days
N=C(N)NCCC[C@H](N)C(=O)O [arginine],–,no effect,–
